Measured values taken from patent US20070053918A1, “Injectable depots consisting of liposomal aggregates for the delivery of active substances” (NOVOSOM AG, priority 2003, published 2007).

Assays:
[1] = Inclusion of leuprolide acetate in liposomes (ultracentrifugation, RP-HPLC); format: physicochemical; conditions: formulation L1 DPPC/DPPG/Chol liposomes, 100 mM lipid, extrusion 400 nm
Description: is dissolved in chloroform at 50° C. and subsequently dried completely in vacuum in a rotary evaporator. The lipid film is added with leuprolide acetate solution (2.5 mg/ml in 10 mM HEPES, 150 mM NaCl, pH 6) in an amount so as to form a 100 mM suspension. Subsequently, this suspension is hydrated in a water bath at 50° C for 45 minutes with agitating. Thereafter, the suspension is frozen. This is followed by 3 additional cycles of freezing and thawing.
Following final thawing, the liposomes are subjected to multiple extrusions through a membrane having a pore width of 400 nm (Avestin LiposoFast, polycarbonate membrane with a pore width of 400 nm).
Following removal of free leuprolide acetate, the percentage of entrapped leuprolide acetate is determined by means of triple sedimentation in an ultracentrifuge at 60,000×g for 45 minutes. The leuprolide acetate is determined following extraction with CHCl3 and CH3OH, using RP-HPLC. Inclusion rates of about 15% leuprolide acetate are found.

[2] = Inclusion of insulin in liposomes (ELISA after liberation from liposomes); format: physicochemical; conditions: DPPC/DPPG/Chol 50:10:40 liposomes, 50 mM lipid, extrusion 200 or 400 nm
Description: A mixture of 50 mole-% DPPC, 10 mole-% DPPG and 40 mole-% Chol is dissolved in chloroform at 50° C. and subsequently dried completely in vacuum in a rotary evaporator. The lipid film is added with human insulin solution (recombinant insulin; 7.5 mg/ml insulin in 10 mM glycine-HCl, 300 mM sucrose, pH 3) in an amount so as to form a 50 mM suspension. Subsequently, this suspension is hydrated in a water bath at 50° C. for 45 minutes by agitating and treated in an ultrasonic bath for another 5 minutes. Thereafter, the suspension is frozen. This is followed by 3 cycles of freezing and thawing, each thawing being followed by a 5 minute treatment in the ultrasonic bath.
Following final thawing, the liposomes are subjected to multiple extrusions through a membrane having a pore width of 200 nm or 400 nm (Avestin LiposoFast, polycarbonate membrane with a pore width of 200 or 400 nm). Following extrusion, the resulting suspension is rebuffered by adding a solutions of HEPES, pH 7.5, and NaCl. After filtration of the liposomes through […], non-entrapped insulin is removed by gel filtration (S-200 column, Pharmacia) . Following liberation from the liposomes, the amount of entrapped insulin is determined by means of an ELISA (DRG-ELISA Kit). Inclusion rates of 50-70% insulin are found.

Molecule | Inclusion rate of leuprolide acetate [1] | Inclusion rate of insulin [2]
CCNC(=O)[C@@H]1CCCN1C(=O)[C@H](CCCNC(=N)N)NC(=O)[C@H](CC(C)C)NC(=O)[C@@H](CC(C)C)NC(=O)[C@H](Cc1ccc(O)cc1)NC(=O)[C@H](CO)NC(=O)[C@H](Cc1c[nH]c2ccccc12)NC(=O)[C@H](Cc1c[nH]cn1)NC(=O)[C@@H]1CCC(=O)N1 [leuprolide acetate] | about 15% | –
insulin: recombinant human insulin entrapped in DPPC/DPPG/Chol 50:10:40 liposomes | – | 50-70%
